The target of experiment [1] is T1, GASC1 (Homo sapiens, UniProt Q9H3R0).
T1 construct: 6×His tagged recombinant GASC1 (N 350aa) was purified from E. Coli BL21(DE3); 6xHis; made in house; host or cells: E. coli BL21(DE3)
T1 sequence (Q9H3R0 1-350 limits assumed): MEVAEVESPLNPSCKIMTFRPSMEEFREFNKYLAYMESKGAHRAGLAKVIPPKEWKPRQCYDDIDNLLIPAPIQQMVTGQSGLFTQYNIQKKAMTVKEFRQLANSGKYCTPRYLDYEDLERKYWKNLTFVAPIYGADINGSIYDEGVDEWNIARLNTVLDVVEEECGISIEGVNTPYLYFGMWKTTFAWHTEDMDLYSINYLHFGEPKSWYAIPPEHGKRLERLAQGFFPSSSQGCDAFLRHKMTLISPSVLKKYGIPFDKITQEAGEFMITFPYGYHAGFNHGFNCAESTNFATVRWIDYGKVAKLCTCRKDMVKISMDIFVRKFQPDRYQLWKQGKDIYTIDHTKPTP
Nature of the experiment: GASC1 demethylation assay on H3K9Me3 peptide (RapidFire HT-MS). The conditions noted are these: read-out: GASC1 Inhibition. It counts as biochemical. The method, then:
6×His tagged recombinant GASC1 (N 350aa) was purified from E. Coli BL21(DE3) to near homogeneity. The demethylation reaction buffer contained 50 mM TrisCl pH 7.5, 0.01% Triton X-100, 5% glycerol, 1 mM ascorbate (Cat# A4034, Sigma Aldrich), 5 μM α-ketoglutarate (# K2010, Sigma Aldrich) and 20 μM Fe2(NH4)2(SO4)2 (Cat# F1543, Sigma Aldrich). In 25 μL demethylation reaction system, 400 nM recombinant GASC1 and 20 μM H3K9me3 peptide (1-21 aa) were incubated with compounds for 10 minutes, and then α-ketoglutarate and Fe2(NH4)2(SO4)2 were added to initiate the reaction. All of the reactions were incubated for 45 minutes at room temperature, and then 25 μl of 1 N HCl was added to quench the reactions. After termination, plates were sealed and frozen at −80° C. and shipped on dry ice to BioTrove Inc. (Woburn, Mass.) for analysis.
All the reactions were read by RapidFire™ HT-MS platform developed in BioTrove Inc, and the method has been described in detail previously (Assay and Drug Development Technologies, 2004; 2(4): 373-381). Briefly, at BioTrove, plates were thawed and immediately analyzed using RapidFire™ system coupled to a Sciex API4000 triple quadrapole mass spectrometer. The samples were delivered directly from the plate to a clean-up cartridge (BioTrove column A) to remove nonvolatile assay components with 0.1% formic acid in a 3-sec wash cycle. The peptide substrate and demethylated product were coeluted to the mass spectrometer with 80% acetonitrile, 0.1% formic acid. Both the substrate and product signals were read at their +5 charge species, and the conversion from substrate to product is assessed by [H3K9me2 Read]/[H3K9me2 Read+H3K9me3 Read].

Experiment [2] addresses T2, KDM5A (Homo sapiens, UniProt P29375).
T2 construct: Full length KDM5A enzyme was expressed and purified inhouse; made in house
Nature of the experiment: KDM5 enzyme assay, KDM5A HTRF (Example 463). The experiment is classed as biochemical. In general terms: TR-FRET usually uses a lanthanide donor and a delayed reading to cut background.
Experimental: Full length KDM5A enzyme was expressed and purified inhouse. Biotin-H3K4me3 peptide was purchased from New England Biolabs. HTRF reagents (containing Eu-labeled H3K4me1-2 antibody, and streptavidin-XL665) were purchased from Cis-Bio International. Plates were read on an Envision multi-label plate reader Perkin Elmer).
The HTRF assay mixture contained 2 nM full length KDM5A enzyme, 100 nM H3K4Me3 peptide substrate, 1 uM 2-OG, 100 uM Fe^2+, 500 uM ascorbate. 50 mM HEPES pH 7.0 buffer, 0.01% Triton-X 100, 2 mM DTT. […] The plates were incubated at room temperature for 60 minutes and then read in the Envision plate reader.

[3] abbreviates: compounds of Examples 1-432, read-out: Example 463 Assay KDM5A HTRF IC50.

Like-named read-outs stand apart in the source and are kept apart here.

T2 sequence (P29375 whole entry): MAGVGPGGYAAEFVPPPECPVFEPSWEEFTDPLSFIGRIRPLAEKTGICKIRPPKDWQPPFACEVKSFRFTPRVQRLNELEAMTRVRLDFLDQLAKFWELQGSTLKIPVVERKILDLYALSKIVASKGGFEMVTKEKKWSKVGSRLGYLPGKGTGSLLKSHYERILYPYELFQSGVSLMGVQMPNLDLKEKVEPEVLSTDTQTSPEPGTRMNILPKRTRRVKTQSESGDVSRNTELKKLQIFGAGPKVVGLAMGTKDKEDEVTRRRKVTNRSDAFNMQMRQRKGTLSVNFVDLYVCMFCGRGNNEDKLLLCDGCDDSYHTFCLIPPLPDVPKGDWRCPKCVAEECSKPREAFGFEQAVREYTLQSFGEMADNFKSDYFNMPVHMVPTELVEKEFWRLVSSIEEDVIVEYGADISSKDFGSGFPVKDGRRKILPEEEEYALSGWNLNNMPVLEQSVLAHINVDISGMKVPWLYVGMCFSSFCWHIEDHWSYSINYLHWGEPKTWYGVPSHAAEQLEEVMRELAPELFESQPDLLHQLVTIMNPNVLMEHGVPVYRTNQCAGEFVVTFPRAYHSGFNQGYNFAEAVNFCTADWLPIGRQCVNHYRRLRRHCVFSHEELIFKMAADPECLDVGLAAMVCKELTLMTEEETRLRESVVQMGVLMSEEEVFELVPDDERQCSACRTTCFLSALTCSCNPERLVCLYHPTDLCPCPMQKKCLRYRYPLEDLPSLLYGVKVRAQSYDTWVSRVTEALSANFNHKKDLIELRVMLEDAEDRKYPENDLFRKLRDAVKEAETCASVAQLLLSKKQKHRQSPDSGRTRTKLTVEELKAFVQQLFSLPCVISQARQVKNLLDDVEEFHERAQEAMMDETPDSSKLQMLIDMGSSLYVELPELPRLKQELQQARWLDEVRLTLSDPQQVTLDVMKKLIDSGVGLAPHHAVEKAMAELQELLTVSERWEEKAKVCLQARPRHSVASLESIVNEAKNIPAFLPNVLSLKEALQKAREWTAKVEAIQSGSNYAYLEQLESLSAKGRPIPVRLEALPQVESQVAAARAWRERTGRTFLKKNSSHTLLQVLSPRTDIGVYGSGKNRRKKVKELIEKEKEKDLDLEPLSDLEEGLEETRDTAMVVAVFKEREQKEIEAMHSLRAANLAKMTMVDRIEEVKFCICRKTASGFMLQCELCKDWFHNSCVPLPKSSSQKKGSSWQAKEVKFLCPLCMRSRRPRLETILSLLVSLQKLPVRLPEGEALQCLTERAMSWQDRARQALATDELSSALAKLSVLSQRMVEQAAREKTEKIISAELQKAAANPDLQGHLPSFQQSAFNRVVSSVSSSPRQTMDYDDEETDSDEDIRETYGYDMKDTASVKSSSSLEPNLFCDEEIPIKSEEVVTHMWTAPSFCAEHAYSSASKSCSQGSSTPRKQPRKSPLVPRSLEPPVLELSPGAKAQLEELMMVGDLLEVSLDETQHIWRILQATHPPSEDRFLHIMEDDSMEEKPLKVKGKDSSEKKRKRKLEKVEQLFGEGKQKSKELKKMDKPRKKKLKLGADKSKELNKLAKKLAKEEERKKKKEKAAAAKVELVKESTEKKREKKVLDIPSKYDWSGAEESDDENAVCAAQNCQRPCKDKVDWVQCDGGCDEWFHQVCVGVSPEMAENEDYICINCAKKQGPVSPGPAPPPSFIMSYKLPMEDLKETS

`CCOC(=O)Cc1c(C)[nH]c2c(C#N)c(C)nn2c1=O` [Compound I-1]: in experiment [1], the IC50 is at least 50000 nM.

For the compound `CCOC(=O)Cc1c(C)[nH]c2c(C#N)cnn2c1=O` [Compound I-2], the IC50 in experiment [1] was at least 50000 nM.

As to `N#Cc1cnn2c(=O)c3c([nH]c12)CCC3` [Compound I-3], the IC50 in experiment [1] lay in the range of 1000 to 10000 nM.

Take `CCc1c(C)[nH]c2c(C#N)c(C)nn2c1=O` [Compound I-5]: the IC50 in experiment [1] is 1000 to 10000 nM.

With `Cc1[nH]c2c(C#N)cnn2c(=O)c1Cc1ccccc1` [Compound I-6], in experiment [1], the IC50 was at least 50000 nM.

As to `Cc1nn2c(=O)c3c([nH]c2c1C#N)CCCC3` [Compound I-12], the IC50 in experiment [1] was in the range of 10000 to 50000 nM.

On to `CCc1nn2c(=O)c3c([nH]c2c1C#N)CCCC3` [Compound I-13], for which the IC50 in experiment [1] is at least 50000 nM.

In the case of `Cn1c2c(c(=O)n3ncc(C#N)c13)CCCC2` [Compound I-14], the IC50 in experiment [1] was at least 50000 nM.

As to `Cc1nn2c(=O)c(C(C)C)c(C)[nH]c2c1C#N` [Compound I-15], in experiment [1], the IC50 was 1000 to 10000 nM.

As for `CCCc1c(C)[nH]c2c(C#N)c(C)nn2c1=O` [Compound I-16], in experiment [1], the IC50 is 1000 to 10000 nM.

With `CCCc1c(C)[nH]c2c(C#N)cnn2c1=O` [Compound I-17], the IC50 in experiment [1] is at most 1000 nM.

On to `N#Cc1cnn2c(=O)c3c(n(Cc4ccccc4)c12)CCCC3` [Compound I-18], for which the IC50 in experiment [1] is at least 50000 nM.

As for `N#Cc1cnn2c(=O)c3c(n(-c4ccccc4)c12)CCCC3` [Compound I-19], the IC50 in experiment [1] is at least 50000 nM.

Turning to `Cc1c(C(C)C)c(=O)n2ncc(C#N)c2n1-c1ccccc1` [Compound I-20], in experiment [1], the IC50 fell in the range of 1000 to 10000 nM.

For the compound `CCc1c(CO)[nH]c2c(C#N)c(C)nn2c1=O` [Compound I-22], the IC50 in experiment [1] fell in the range of 1000 to 10000 nM.

In the case of `CCc1c(COC)[nH]c2c(C#N)c(C)nn2c1=O` [Compound I-24], in experiment [1], the IC50 lay within 1000 to 10000 nM.

With `CCOC(=O)c1[nH]c2c(C#N)c(C)nn2c(=O)c1CC` [Compound I-26], the IC50 in experiment [1] is 1000 to 10000 nM.

Take `COCCOc1c2c(nc3c(C#N)cnn13)CCCC2` [Compound I-27]: the IC50 in experiment [1] is at least 50000 nM.

For the compound `COCCc1c(C)[nH]c2c(C#N)cnn2c1=O` [Compound I-28], in experiment [1], the IC50 was at least 50000 nM.

Take `CCCc1c(COC)[nH]c2c(C#N)cnn2c1=O` [Compound I-31]: the IC50 in experiment [1] was 1000 to 10000 nM.

On to `CCc1c(CCCOC)[nH]c2c(C#N)cnn2c1=O` [Compound I-32], for which, in experiment [1], the IC50 fell in the range of 1000 to 10000 nM.

Regarding `CCCc1c(CO)[nH]c2c(C#N)cnn2c1=O` [Compound I-33], in experiment [1], the IC50 was in the range of 1000 to 10000 nM.

Turning to `C=CCc1c(C)[nH]c2c(C#N)cnn2c1=O` [Compound I-34], the IC50 in experiment [1] was at most 1000 nM.

Consider `CCc1c(C(C)O)[nH]c2c(C#N)cnn2c1=O` (stereo not shown) [Compound I-35], for which the IC50 in experiment [1] lay within 1000 to 10000 nM.

As to `CCc1c(C)n(CCN(C)C)c2c(C#N)cnn2c1=O` [Compound I-36], the IC50 in experiment [1] was at least 50000 nM.

Consider `CCc1c2n(c3c(C#N)cnn3c1=O)CCC2` [Compound I-37], for which the IC50 in experiment [1] was at least 50000 nM.

Turning to `CCc1c(CCCO)[nH]c2c(C#N)cnn2c1=O` [Compound I-38], in experiment [1], the IC50 was at most 1000 nM.

Consider `Cc1[nH]c2c(C#N)cnn2c(=O)c1CC(C)C` [Compound I-39], for which the IC50 in experiment [1] is 1000 to 10000 nM.

On to `Cc1[nH]c2c(C#N)cnn2c(=O)c1CCO` [Compound I-40], for which, in experiment [1], the IC50 is 1000 to 10000 nM.

As for `CCc1c(C(F)(F)F)[nH]c2c(C#N)cnn2c1=O` [Compound I-41], in experiment [1], the IC50 is at most 1000 nM.

Consider `CCc1c(-c2ccoc2)[nH]c2c(C#N)cnn2c1=O` [Compound I-42], for which, in experiment [1], the IC50 was at most 1000 nM.

With `CCCc1c(C(=O)OCC)[nH]c2c(C#N)cnn2c1=O` [Compound I-43], the IC50 in experiment [1] was 1000 to 10000 nM.

Take `CCc1c(Cc2ccccc2)[nH]c2c(C#N)cnn2c1=O` [Compound I-44]: the IC50 in experiment [1] is at most 1000 nM.

`CCOCc1[nH]c2c(C#N)cnn2c(=O)c1CC` [Compound I-45]: in experiment [1], the IC50 was at most 1000 nM.

With `C#CCc1c(C)[nH]c2c(C#N)cnn2c1=O` [Compound I-46], the IC50 in experiment [1] was at most 1000 nM.

On to `CCc1c(-c2ccccc2)[nH]c2c(C#N)cnn2c1=O` [Compound I-47], for which, in experiment [1], the IC50 is at most 1000 nM.

In the case of `CCNC(=O)c1[nH]c2c(C#N)cnn2c(=O)c1CC` [Compound I-48], the IC50 in experiment [1] was 1000 to 10000 nM.

Take `C=CCc1c(CO)[nH]c2c(C#N)cnn2c1=O` [Compound I-50]: the IC50 in experiment [1] is 1000 to 10000 nM.

Consider `C=CCc1c(COC)[nH]c2c(C#N)cnn2c1=O` [Compound I-51], for which the IC50 in experiment [1] was at most 1000 nM.

Regarding `CCc1c(CNC)[nH]c2c(C#N)cnn2c1=O` [Compound I-52], the IC50 in experiment [1] was in the range of 1000 to 10000 nM.

In the case of `CCc1c(C(=O)OCc2ccccc2)[nH]c2c(C#N)cnn2c1=O` [Compound I-53], the IC50 in experiment [1] was in the range of 1000 to 10000 nM.

`COc1c2c(nc3c(C#N)cnn13)CCCC2` [Compound I-54]: the IC50 in experiment [1] lay in the range of 1000 to 10000 nM.

As to `N#Cc1cnn2c(=O)c3ccccc3[nH]c12` [Compound I-55], in experiment [1], the IC50 fell in the range of 1000 to 10000 nM.

`Cc1ccc(-c2[nH]c3c(C#N)cnn3c(=O)c2C(C)C)cc1` [Example 330]: in experiment [2] (setting [3]), the IC50 was 23 nM.

Consider `CC(C)c1c(-c2ccc(C3CC3)cc2)[nH]c2c(C#N)cnn2c1=O` [Example 331], for which the IC50 in experiment [2] (setting [3]) is 27 nM.

As for `CCS(=O)(=O)c1ccc(-c2[nH]c3c(C#N)cnn3c(=O)c2C(C)C)cc1` [Example 332], the IC50 in experiment [2] (setting [3]) was 20 nM.

As for `C=Cc1cccc(Cn2cc(-c3[nH]c4c(C#N)cnn4c(=O)c3C(C)C)cn2)n1` [Example 333], in experiment [2] (setting [3]), the IC50 is 12 nM.

Take `CC(C)c1c(-c2ccc(OCc3ccccc3)nc2)[nH]c2c(C#N)cnn2c1=O` [Example 334]: the IC50 in experiment [2] (setting [3]) was 25 nM.

Consider `CC(C)c1c(C2=CCN(C(=O)OC(C)(C)C)C2)[nH]c2c(C#N)cnn2c1=O` [Example 335], for which the IC50 in experiment [2] (setting [3]) was 60 nM.

For the compound `CC(C)c1c(-c2cnn(C(CO)c3ccccc3)c2)[nH]c2c(C#N)cnn2c1=O` (stereo not shown) [Example 336], the IC50 in experiment [2] (setting [3]) came out at 32 nM.

For `CC(C)c1c(-c2cnn(C(CC#N)c3ccccc3)c2)[nH]c2c(C#N)cnn2c1=O` (stereo not shown) [Example 337], the IC50 in experiment [2] (setting [3]) stood at 25 nM.

As for `CC(C)c1c(-c2ccc(C3CC3)nc2)[nH]c2c(C#N)cnn2c1=O` [Example 338], in experiment [2] (setting [3]), the IC50 was found to be 34 nM.

Regarding `COc1cc(-c2[nH]c3c(C#N)cnn3c(=O)c2C(C)C)ccc1C#N` [Example 339], in experiment [2] (setting [3]), the IC50 turned out to be 33 nM.

In the case of `COc1ccc(-c2[nH]c3c(C#N)cnn3c(=O)c2C(C)C)cc1C(F)(F)F` [Example 340], in experiment [2] (setting [3]), the IC50 stood at 31 nM.

The compound `CC(C)c1c(-c2ccc(Cl)cc2)[nH]c2c(C#N)cnn2c1=O` [Example 341] gave an IC50 in experiment [2] of 21 nM.

As to `CC(C)c1c(-c2cnn(Cc3ccc(F)c(F)c3)c2)[nH]c2c(C#N)cnn2c1=O` [Example 342], the IC50 in experiment [2] (setting [3]) turned out to be 9 nM.

`Cc1ccc(-c2[nH]c3c(C#N)cnn3c(=O)c2C(C)C)cc1C(F)(F)F` [Example 343]: in experiment [2] (setting [3]), the IC50 was 36 nM.

Consider `CC(C)c1c(-c2ccc(C(=O)N3CCCC3)cc2)[nH]c2c(C#N)cnn2c1=O` [Example 344], for which the IC50 in experiment [2] (setting [3]) came out at 93 nM.

Values taken from patent US10035801B2, “Pyrazolo compounds and uses thereof” (CONSTELLATION PHARMACEUTICALS, INC., priority 2013, dated 2018).
